Here are results for 16 compounds from article PMC10707934, “Design and Synthesis of Novel α-Methylchalcone Derivatives, Anti-Cervical Cancer Activity, and Reversal of Drug Resistance in HeLa/DDP Cells” (Molecules, 2023).

Series [1] has as its system human cervical epithelial cells H8. The experiment in a line: MTT toxicity assay, normal cervical epithelial cells H8. The series is classed as cell-based. To be noted: Homo sapiens, Epithelial cell, 48 h, mean ± SD. Here is the method: (§1) All cell types, at a volume of 200 µL per well, were inoculated in 96-well plates at a density of 2.5 × 10^4 cells / mL and cultured for 24 h in an incubator with 5% CO2 at 37 °C. The old culture medium was replaced with 200 µL of fresh medium per well containing positive compounds, at concentrations of 1, 6.25, 12.5, 25, 50, and 100 μM. After 48 h of culture, 20 µL per well of 5 mg·mL^−1 MTT solution was added. After 4 h of culture, the old solution was discarded, and 150 µL per well of DMSO solution was added. Using an enzyme labeler (Thermo Fisher Scientific, Multiskan GO, Waltham, MA, USA), the plates were shaken for 10 min, OD values were determined at 490 nm, and the inhibition rate was calculated. Non-linear regression fitting of the cell growth rate was carried out using SPSS 23.0, and the IC50 of the compound was calculated. The inhibition rate was calculated using the formula: [(ODempty − ODtest)/(ODempty − ODnegative group)] × 100%, (ODempty blank group absorbance, ODtest absorbance of administration group, ODnegative group without cell culture medium). Each group contained six compound holes, and the experimental results averaged three trials. Complete medium containing only cells was used as the blank control; a complete medium without cells as was used as the negative control; and cisplatin, paclitaxel, and adriamycin were used as the positive controls. The concentration gradient was the same as that used for compounds 3a–3p.

In a further series the test system is HeLa cells. As to the kind of experiment: MTT anti-proliferation assay, HeLa. In kind it is cell-based, human. To be noted: Homo sapiens, 48 h, mean ± SD. Here is the method:
as §1, with “3a–3p. […]” for “3a–3p.”

The test system of a further series is SiHa cells. The experiment in a line: MTT anti-proliferation assay, SiHa. The series is classed as cell-based, human. To be noted: Homo sapiens, 48 h, mean ± SD. The procedure: as §1
The subject of a further series is C33A cells. As to the kind of experiment: MTT anti-proliferation assay, C33A. In kind it is cell-based, human. Conditions: Homo sapiens, C-33-A, 48 h, mean ± SD. The procedure: as §1
A further series concerns HeLa/DDP cells. As to the kind of experiment: MTT anti-cisplatin-resistant cervical cancer activity, HeLa/DDP. The series is classed as cell-based, human. To be noted: 48 h. The procedure: as §1
To mitigate the detrimental consequences arising from the fixation of resistance reversal agents, concentrations that yielded a tumor cell proliferation rate reduction of less than 10% were selected. Consequently, the inhibitory efficacy of compound 3k against HeLa/DDP cells was assessed in conjunction with cisplatin at concentrations of 0.25, 0.5, and 1 μM. The experimental procedure employed was akin to that elucidated in Section 3.3.2. The impact of verapamil (6 μM) and 3k (0.25, 0.5, and 1 μM) on P-gp expression was ascertained via Western blot experiments, employing the same methodology delineated in Section 3.3.4.

For `COc1cc(OC)c(OC)cc1/C=C(\C)C(=O)c1ccc(Cl)c(Cl)c1` [Compound 3a, (E)-1-(3,4-Dichlorophenyl)-2-methyl-3-(2,4,5-trimethoxyphenyl)prop-2-en-1-one], the melting point was 129.6 to 130.5 °C. Besides, the IC50 in series [1] was > 100 µM. Besides, in the series with HeLa cells, the IC50 was > 100 µM. Also, the IC50 in the series with SiHa cells stood at 23.5 ± 4.55 µM. The 50% inhibitory concentration (IC50) with C33A cells amounted to 69.9 ± 7.18 µM.
Consider `COc1cc(/C=C(\C)C(=O)c2ccc(Cl)c(Cl)c2)cc(OC)c1OC` [Compound 3b, (E)-1-(3,4-Dichlorophenyl)-2-methyl-3-(3,4,5-trimethoxyphenyl)prop-2-en-1-One], for which the IC50 in series [1] worked out at 57.7 ± 4.7 µM; in the series on HeLa cells it was 43.8 ± 3.68 µM; in the series on SiHa cells, 28.4 ± 2.37 µM; in the series on C33A cells, 57 ± 6.27 µM.
`COc1ccc(/C=C(\C)C(=O)c2ccc(Cl)c(Cl)c2)c(OC)c1OC` [Compound 3c, (E)-1-(3,4-Dichlorophenyl)-2-methyl-3-(2,3,4-trimethoxyphenyl)prop-2-en-1-one] displayed a melting point of 114.1 to 115.5 °C. Besides, the IC50 in series [1] was > 100 µM. Besides, the IC50 with HeLa cells was > 100 µM. In addition, the half-inhibitory concentration (IC50) in the series on SiHa cells worked out at 41.8 ± 5.1 µM. The compound further registered a half-maximal inhibitory concentration (IC50) in the series on C33A cells of 33.9 ± 4.99 µM.
As to `COc1cc(OC)c(/C=C(\C)C(=O)c2ccc(Cl)c(Cl)c2)c(OC)c1` [Compound 3d, (E)-1-(3,4-Dichlorophenyl)-2-methyl-3-(2,4,6-trimethoxyphenyl)prop-2-en-1-one], the melting point lay within 67.1 to 67.8 °C. Further, the half-maximal inhibitory concentration (IC50) in series [1] was > 100 µM. The IC50 in the series on HeLa cells was determined as 97.6 ± 7.61 µM. Also, the IC50 in the series with SiHa cells is > 100 µM. Moreover, the 50% inhibitory concentration (IC50) in the series with C33A cells turned out to be 63.7 ± 2.59 µM.
Take `COc1cc(OC)c(/C=C(\C)C(=O)c2ccc(Cl)cc2Cl)c(OC)c1` [Compound 3e, (E)-1-(2,4-dichlorophenyl)-2-methyl-3-(2,4,6-trimethoxyphenyl)prop-2-en-1-one]: the melting point lay in the range of 104.6 to 105.7 °C. The IC50 in series [1] is > 100 µM. Also, the half-maximal inhibitory concentration (IC50) in the series with HeLa cells is > 100 µM. Further, the half-maximal inhibitory concentration (IC50) with SiHa cells was > 100 µM. The IC50 in the series on C33A cells is > 100 µM.
As to `COc1ccc(/C=C(\C)C(=O)c2ccc(Cl)c(Cl)c2)c(OC)c1` [Compound 3f, (E)-1-(3,4-dichlorophenyl)-3-(2,4-dimethoxyphenyl)-2-methylprop-2-en-1-one], the melting point lay in the range of 112.3 to 113.6 °C. Further, the IC50 in series [1] is > 100 µM. Besides, the IC50 in the series with HeLa cells is > 100 µM. Besides, in the series on SiHa cells, the half-maximal inhibitory concentration (IC50) is > 100 µM. For the same compound, inhibition with C33A cells was half-maximal at 23.7 ± 4.07 µM (IC50).
`COc1cccc(OC)c1/C=C(\C)C(=O)c1ccc(Cl)c(Cl)c1` [Compound 3g, (E)-1-(3,4-dichlorophenyl)-3-(2,6-dimethoxyphenyl)-2-methylprop-2-en-1-one] registered a melting point of 134.4 to 135.6 °C. For the same compound, the IC50 in series [1] is > 100 µM. The same compound registered an IC50 in the series with HeLa cells of 56.1 ± 4.58 µM. Besides, the IC50 in the series with SiHa cells is > 100 µM. In the series with C33A cells, this compound gave an IC50 of 44.8 ± 2.85 µM.
Regarding `COc1cc(/C=C(\C)C(=O)c2ccc(Cl)c(Cl)c2)cc(OC)c1` [Compound 3h, (E)-1-(3,4-Dichlorophenyl)-3-(3,5-dimethoxyphenyl)-2-methylprop-2-en-1-one], the melting point lay within 157 to 158.1 °C. For the same compound, the half-maximal inhibitory concentration (IC50) in series [1] was > 100 µM. In addition, the half-maximal inhibitory concentration (IC50) in the series on HeLa cells was > 100 µM. The IC50 in the series on SiHa cells is > 100 µM. In the series with C33A cells, this compound yielded an IC50 of 54.4 ± 11.5 µM.
`COc1cccc(/C=C(\C)C(=O)c2ccc(Cl)c(Cl)c2)c1OC` [Compound 3i, (E)-1-(3,4-Dichlorophenyl)-3-(2,3-dimethoxyphenyl)-2-methylprop-2-en-1-one] had a melting point of 99.8 to 100.7 °C. In addition, the 50% inhibitory concentration (IC50) in series [1] is > 100 µM. In the series on HeLa cells, the IC50 is > 100 µM. Besides, the IC50 in the series with SiHa cells is > 100 µM. Besides, the 50% inhibitory concentration (IC50) in the series with C33A cells was determined as 30.7 ± 8.84 µM.
As for `COc1ccc(OC)c(/C=C(\C)C(=O)c2ccc(Cl)c(Cl)c2)c1` [Compound 3j, (E)-1-(3,4-Dichlorophenyl)-3-(2,5-dimethoxyphenyl)-2-methylprop-2-en-1-one], the 50% inhibitory concentration (IC50) in series [1] was > 100 µM; in the series with HeLa cells, > 100 µM; in the series on SiHa cells, > 100 µM; in the series on C33A cells, 28.5 ± 3.78 µM.
In the case of `COc1ccccc1/C=C(\C)C(=O)c1ccc(Cl)c(Cl)c1` [Compound 3l, (E)-1-(3,4-Dichlorophenyl)-3-(2-methoxyphenyl)-2-methylprop-2-en-1-one], the melting point was 92.8 to 93.6 °C. The IC50 in series [1] was > 100 µM. Further, the IC50 with HeLa cells is > 100 µM. The same compound registered an IC50 with SiHa cells of 22.5 ± 1.36 µM. The compound further came in with an IC50 with C33A cells of 17.3 ± 2.24 µM.
In turn, `COc1ccc(/C=C(\C)C(=O)c2ccc(Cl)c(Cl)c2)cc1` [Compound 3m, (E)-1-(3,4-Dichlorophenyl)-3-(4-methoxyphenyl)-2-methylprop-2-en-1-one] showed a melting point of 70 to 71.1 °C. In addition, the concentration for half-maximal inhibition (IC50) in series [1] was > 100 µM. The midpoint of inhibition with HeLa cells, the IC50, lay at 29.8 ± 0.98 µM. The compound further returned a half-inhibitory concentration (IC50) with SiHa cells of 67.7 ± 5.6 µM. Moreover, the concentration for half-maximal inhibition (IC50) in the series on C33A cells is 35.1 ± 4.75 µM.
In the same order, the values of `C/C(=C\c1ccc(N(C)C)cc1)C(=O)c1ccc(Cl)c(Cl)c1` [Compound 3n, (E)-1-(3,4-Dichlorophenyl)-3-(4-(dimethylamino)phenyl)-2-methylprop-2-en-1-one] are 184 to 184.8 °C, > 100 µM, > 100 µM, > 100 µM and 23.4 ± 3.42 µM.
In the same order, the values of `CCN(CC)c1ccc(/C=C(\C)C(=O)c2ccc(Cl)c(Cl)c2)cc1` [Compound 3o, (E)-1-(3,4-Dichlorophenyl)-3-(4-(diethylamino)phenyl)-2-methylprop-2-en-1-one] are 186.7 to 190.8 °C, > 100 µM, > 100 µM, > 100 µM and 35 ± 4.93 µM.
Turning to `CCN(CC)c1ccc(/C=C(\C)C(=O)c2ccc(Cl)cc2Cl)cc1` [Compound 3p, (E)-1-(2,4-Dichlorophenyl)-3-(4-(diethylamino)phenyl)-2-methylprop-2-en-1-one], the IC50 in series [1] is > 100 µM; in the series with HeLa cells, > 100 µM; in the series on SiHa cells it was > 100 µM; in the series with C33A cells it was 41.4 ± 5.42 µM.
For `COc1cccc2c1C(=O)c1c(O)c3c(c(O)c1C2=O)C[C@@](O)(C(=O)CO)C[C@@H]3O[C@H]1C[C@H](N)[C@H](O)[C@H](C)O1` [Doxorubicin], the IC50 amounted to 10.4 ± 1.09 µM in the series on HeLa cells and 38.3 ± 4.57 µM with HeLa/DDP cells (Homo sapiens, HeLa/DDP, MTT, mean ± SD). For the same compound, in the series with HeLa/DDP cells (HeLa/DDP versus parental HeLa), the “resistance index (RI)” value turned out to be 3.68.
